pIC50: −log10 of the molar value.
Molecular target: T1, Human complement C1s enzyme (Homo sapiens, UniProt P09871)
T1 sequence (P09871 438-688 limits assumed): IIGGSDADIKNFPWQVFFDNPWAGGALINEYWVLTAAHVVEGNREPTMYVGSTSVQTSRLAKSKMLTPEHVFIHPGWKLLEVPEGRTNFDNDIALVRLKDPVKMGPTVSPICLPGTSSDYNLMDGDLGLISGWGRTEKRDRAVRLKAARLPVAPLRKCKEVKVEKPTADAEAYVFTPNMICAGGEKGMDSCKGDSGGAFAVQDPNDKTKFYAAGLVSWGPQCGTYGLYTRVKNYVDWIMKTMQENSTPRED
T1 sequence (P09871 16-437 partner limits assumed): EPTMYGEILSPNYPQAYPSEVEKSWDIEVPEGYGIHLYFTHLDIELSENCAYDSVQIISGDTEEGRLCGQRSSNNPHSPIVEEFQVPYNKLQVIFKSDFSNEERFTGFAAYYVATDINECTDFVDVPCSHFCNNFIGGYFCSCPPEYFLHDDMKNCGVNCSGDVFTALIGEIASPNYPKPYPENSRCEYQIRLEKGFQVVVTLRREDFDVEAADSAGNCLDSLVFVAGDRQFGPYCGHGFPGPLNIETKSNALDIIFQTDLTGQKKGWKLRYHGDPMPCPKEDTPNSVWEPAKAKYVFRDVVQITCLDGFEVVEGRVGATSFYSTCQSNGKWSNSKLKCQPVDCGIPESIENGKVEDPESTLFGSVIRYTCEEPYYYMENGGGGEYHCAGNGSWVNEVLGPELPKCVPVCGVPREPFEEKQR
Test: Human C1s enzyme assay
Format: biochemical
Conditions: human complement C1s enzyme 1.16 nM, substrate Z-L-Lys-SBzl 100 μM, 5 min preincubation; read-out: IC50 (Stars), C1s Inhibiting Activity
Procedure, shortened: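 IC50 from nonlinear regression of reaction rates versus compound concentration, with rates taken from A405 recorded at 30 s intervals over 30 min after adding 100 μM Z-L-Lys-SBzl plus 100 μM DTNB. Enzyme was human C1s purified from serum, 1.16 nM, given 5 min compound preincubation at room temperature, pH 7.5 Tris/1 M NaCl.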

Compound | pIC50
CCc1ccc(Oc2cc(F)cc(C(=O)NCC(=O)N3C[C@H](OC(F)F)C[C@H]3C(=O)NCc3cc4cnccc4[nH]3)c2)cc1 [Compound 370, (2S,4R)-N-((1H-pyrrolo[3,2-c]pyridin-2-yl)methyl)-4-(difluoromethoxy)-1-((3-(4-ethylphenoxy)-5-fluorobenzoyl)glycyl)pyrrolidine-2-carboxamide] | > 7.00
CCc1ccc(Oc2cc(F)cc(C(=O)NCC(=O)N3[C@H]4C[C@@]4(C)C[C@H]3C(=O)NCc3cc4cnccc4[nH]3)c2)cc1 [Compound 371, (1S,3S,5S)-N-((1H-pyrrolo[3,2-c]pyridin-2-yl)methyl)-2-((3-(4-ethylphenoxy)-5-fluorobenzoyl)glycyl)-5-methyl-2-azabicyclo[3.1.0]hexane-3-carboxamide] | > 7.00
CCc1ccc(Oc2cc(F)cc(C(=O)NCC(=O)N3C[C@@](F)(Cn4ccnc4)C[C@H]3C(=O)NCc3cc4cnccc4[nH]3)c2)cc1 [Compound 372, (2S,4S)-4-((1H-imidazol-1-yl)methyl)-N-((1H-pyrrolo[3,2-c]pyridin-2-yl)methyl)-1-((3-(4-ethylphenoxy)-5-fluorobenzoyl)glycyl)-4-fluoropyrrolidine-2-carboxamide] | > 7.00
C[C@@]12C[C@@H]1N(C(=O)CNC(=O)c1ccc(Oc3ccccc3)cc1)[C@H](C(=O)NCc1ccc(Cl)cc1)C2 [Compound 373, (1S,3S,5S)-N-(4-chlorobenzyl)-5-methyl-2-((4-phenoxybenzoyl)glycyl)-2-azabicyclo[3.1.0]hexane-3-carboxamide] | < 6.00
Cc1ccc(Oc2cccc(C(=O)NCC(=O)N3C[C@H](OC(F)F)C[C@H]3C(=O)NCc3c(C)cc(N)nc3C)c2F)cc1 [Compound 374, (2S,4R)-N-((6-amino-2,4-dimethylpyridin-3-yl)methyl)-4-(difluoromethoxy)-1-((2-fluoro-3-(p-tolyloxy)benzoyl)glycyl) pyrrolidine-2-carboxamide] | < 6.00
Cc1ccc(Oc2cccc(C(=O)NCC(=O)N3N=CC[C@H]3C(=O)NCc3cc4cnccc4[nH]3)c2F)cc1 [Compound 375, (S)-N-((1H-pyrrolo[3,2-c]pyridin-2-yl)methyl)-1-((2-fluoro-3-(p-tolyloxy)benzoyl)glycyl)-4,5-dihydro-1H-pyrazole-5-carboxamide] | > 7.00
Cc1ccc(Oc2cccc(C(=O)NCC(=O)N3C[C@H](OC(F)F)C[C@H]3C(=O)Nc3cc4cnccc4s3)c2F)cc1 [Compound 376, (2S,4R)-4-(difluoromethoxy)-1-((2-fluoro-3-(p-tolyloxy)benzoyl)glycyl)-N-(thieno[3,2-c]pyridin-2-yl)pyrrolidine-2-carboxamide] | < 6.00
O=C(NCC(=O)N1C[C@H](OC(F)F)C[C@H]1C(=O)NCc1cc2cnccc2[nH]1)c1cc(-c2ccc(Cl)cc2)cs1 [Compound 377, (2S,4R)-N-((1H-pyrrolo[3,2-c]pyridin-2-yl)methyl)-1-((4-(4-chlorophenyl)thiophene-2-carbonyl)glycyl)-4-(difluoromethoxy)pyrrolidine-2-carboxamide] | > 7.00
O=C(NCC(=O)N1C[C@H](OC(F)F)C[C@H]1C(=O)NCc1cc2cnccc2[nH]1)c1cccc(N2Cc3ccccc3C2)c1 [Compound 378, (2S,4R)-N-((1H-pyrrolo[3,2-c]pyridin-2-yl)methyl)-4-(difluoromethoxy)-1-((3-(isoindolin-2-yl)benzoyl)glycyl)pyrrolidine-2-carboxamide] | > 7.00
O=C(NCC(=O)N1C[C@H](OC(F)F)C[C@H]1C(=O)NCc1cc2cnccc2[nH]1)c1cc(-c2ccccc2)cs1 [Compound 379, (2S,4R)-N-((1H-pyrrolo[3,2-c]pyridin-2-yl)methyl)-4-(difluoromethoxy)-1-((4-phenylthiophene-2-carbonyl)glycyl)pyrrolidine-2-carboxamide] | > 7.00
O=C(NCC(=O)N1C[C@H](OC(F)F)C[C@H]1C(=O)NCc1cc2cnccc2[nH]1)c1cncc(N2CCOCC2)n1 [Compound 380, N-(2-((2S,4R)-2-(((1H-pyrrolo[3,2-c]pyridin-2-yl)methyl)carbamoyl)-4-(difluoromethoxy)pyrrolidin-1-yl)-2-oxoethyl)-6-morpholinopyrazine-2-carboxamide] | < 6.00
O=C(NCC(=O)N1C[C@H](OC(F)F)C[C@H]1C(=O)NCc1cc2cnccc2[nH]1)c1ccc(-c2ccccn2)s1 [Compound 381, (2S,4R)-4-(difluoromethoxy)-1-[2-[[5-(2-pyridyl)thiophene-2-carbonyl]amino]acetyl]-N-(1H-pyrrolo[3,2-c]pyridin-2-ylmethyl)pyrrolidine-2-carboxamide] | > 7.00
COc1cccc(C(=O)NCC(=O)N2C[C@H](OC(F)F)C[C@H]2C(=O)NCc2cc3cnccc3[nH]2)c1 [Compound 382, (2S,4R)-N-((1H-pyrrolo[3,2-c]pyridin-2-yl)methyl)-4-(difluoromethoxy)-1-((3-methoxybenzoyl)glycyl) pyrrolidine-2-carboxamide] | 6.00 to 7.00
O=C(NCC(=O)N1C[C@H](OC(F)F)C[C@H]1C(=O)NCc1cc2cnccc2[nH]1)c1ccc(OC2CCCCC2)cc1 [Compound 383, (2S,4R)-N-((1H-pyrrolo[3,2-c]pyridin-2-yl)methyl)-1-((4-(cyclohexyloxy)benzoyl)glycyl)-4-(difluoromethoxy)pyrrolidine-2-carboxamide] | > 7.00
COc1ccc(C(=O)NCC(=O)N2C[C@H](OC(F)F)C[C@H]2C(=O)NCc2cc3cnccc3[nH]2)cc1 [Compound 384, (2S,4R)-N-((1H-pyrrolo[3,2-c]pyridin-2-yl)methyl)-4-(difluoromethoxy)-1-((4-methoxybenzoyl)glycyl) pyrrolidine-2-carboxamide] | < 6.00
Cc1ccsc1Oc1cccc(C(=O)NCC(=O)N2C[C@H](OC(F)F)C[C@H]2C(=O)NCc2cc3cnccc3[nH]2)c1 [Compound 385, (2S,4R)-N-((1H-pyrrolo[3,2-c]pyridin-2-yl)methyl)-4-(difluoromethoxy)-1-((3-((3-methylthiophen-2-yl)oxy)benzoyl)glycyl) pyrrolidine-2-carboxamide] | > 7.00
